Test results taken from US20050118596A1, “Method for screening for compounds having hdac inhibitory activity” (priority 2002, published 2005).
Like-named read-outs stand apart in the source and are kept apart here. Blank lines part the entries; values can stand above or below the compound they belong to. Where a SMILES comes first, the peptide text is derived from it. [ ]: non-standard residue; d: D form. ξ: configuration not given here. Aoe(9ξ) = N[C@@H](CCCCCC(=O)C1CO1)C(=O)O; dPip = O=C(O)[C@H]1CCCCN1

Columns and labels:
[1] = system: histone deacetylase activity purified from H1299 cells; assay: Histone deacetylase activity, release of tritium labeled acetyl groups from acetylated Histone H4 peptide; format: biochemical, Human; conditions: HDAC activity purified from H1299 cells, 2 hours at 37° C.
Experimental: Using conventional methodologies, the actual enzyme activity of […] was examined in the presence of Trapoxin A, Compound A or Compound B. Briefly, 30,000 cpms of a tritium labeled acetylated Histone H4 peptide is incubated with histone deacetylase activity purified from H1299 cells by ion exchange chromatography in HDAC assay buffer (10 mM Tris-Cl, pH 8.0, 10 mM NaCl, 10% glycerol) in the presence or absence of drug. The mixture is allowed to sit for 2 hours at 37° C. and radio-labeled acetyl groups released by histone deacetylase activity extracted into ethyl acetate and counted on a scintillation counter. The IC50 represents the concentration of drug that inhibits 50% of the histone deacetylase activity obtained in the absence of drug.

[2] = system: Fra-1 mRNA in H1299 cells; assay: Fra-1 mRNA levels by Q-PCR in H1299 cells after HDAC inhibitor treatment; format: cell-based, Human; conditions: for mrna remaining at 0.1 µM: Homo sapiens, NCI-H1299, read-out: % Fra1 mRNA remaining; for mrna remaining at 0.1 µM / % Fra1 mRNA remaining: H1299 cells
Experimental: Human H1299 non-small cell lung carcinoma cells (ATCC, Manassas, Va.) (ATCC #CRL-5803) are cultured in RPMI 1640 medium (Life Technologies, Gaithersburg, Md.) containing 10% fetal bovine serum (FBS, Life Technologies) plus 50 μg/ml Gentamycin (Life Technologies) in a humidified incubator with a 5% CO2 atmosphere at 37° C. Prior to Tpx A treatment, H1299 cells are plated at a density of 2×10^5 cells/well in 6 well plates (Costar, Corning, N.Y.) and grown up for 24 h. Tpx A (1 mM stock solution in DMSO) is added to the cells at concentrations from 1 to 1000 nM and cells are incubated for either 24 or 48 hours at 37° C.
(§1) Total RNA from Tpx A treated as well as untreated H1299 and A549 cells is prepared using the RNeasy Mini kit (Qiagen, Hilden, Germany) according to the manufacturers instructions. The RNA is recovered in 50 μl DEPC-treated H2O (RNase free) and the RNA concentration is determined by measuring the OD260 in a SpectraMax photometer (Molecular Devices, Sunnyvale, Calif.).
(§2) Sequences for primers (BIG, Freiburg, Germany) and TaqMan probes for Q-PCR containing 5′ FAM fluorescent reporter and 3′ TAMRA quencher dyes (Eurogentec, Seraing, Belgium) are selected using the Primer Express Software (Applied Biosystems, Foster City, Calif.) at default settings; Primer TM Requirements: Min Tm: 58° C., Max Tm:60° C., Optimal Tm: 59° C., Maximal Tm difference: 2° C. Primer GC Content Requirements: Min %GC 30, Max %GC 80, 3′ clamp of 0 residues. Primer Length Requirements: Min length: 9, Max length: 40, optimal length: 20. Amplicon Requirements: Min Tm: 0° C., Max Tm: 85° C., Min length: 50, Max length: 150. TaqMan Probe Criteria: TaqMan probe Tm must be 10° C. greater than PCR primer Tm.
(§3) Q-PCR is performed using the TaqMan PCR Core reagent kit (Applied Biosystems Foster City, Calif.) in a ABI Prism 7700 sequence detector (Applied Biosystems) according to the manufacturers instructions. 50 ng total RNA in 12 μl DEPC-H2O are prepared in MicroAmp optical 96 well reaction plates (Applied Biosystems) together with 13 μl TaqMan PCR reagent mix as provided in Table 1.
(§4) Settings for reverse transcription of the target RNA and detection by Q-PCR are 50° C. for 2 min., 95° C. for 10 min. followed by 50 cycles of 95° C. for 15 sec and 60° C. for 1 min. Relative measurement of the amplified product is performed using the comparative CT method as described in the manufacturer's manual (Applied Biosystems, ABI Prism 7700 sequence detection system, User Bulletin #2).
(§5) H1299 cells and HCT116 cells (ATCC, Manassas, Va.) are cultured and exposed to Tpx A or Compound A and levels of Fra-1 message assayed. In these experiments, H1299 cells are cultured as described in Example 1. HCT116 cells are cultured in RPMI 1640 medium containing 10% fetal calf serum at 37° C. and 5% CO2. 100 nM trapoxin, 100 nM Compound A or 100 nM DMSO are added to the cells at 60% confluence and grown up for either 6 or 24 hours. Using methodologies as described in Example 1 above, the RNA from cultures treated with Tpx A, Compound A or DMSO as a control is obtained and analysed by Q-PCR for Fra-1 levels; in this case, 8.7 ng total RNA in 12 μl DEPC-H2O are prepared in MicroAmp optical 96 well reaction plates (Applied Biosystems) together with 13 μl TaqMan PCR reagent mix as provided in Table 1.

[3] = system: Fra-1 mRNA in HCT116 cells; assay: Fra-1 mRNA levels by Q-PCR in HCT116 cells after HDAC inhibitor treatment; format: cell-based; conditions: for mrna remaining at 0.1 µM: Homo sapiens, HCT-116, 100 nM drug, read-out: % Fra1 mRNA remaining; for % Fra1 mRNA remaining: 100 nM drug
Experimental: as §5

[4] = target: histone deacetylase activity purified from H1299 cells by ion exchange chromatography (human); assay: cell-based or functional assay
[5] = system: Fra-1 mRNA in A549 cells; assay: Fra-1 mRNA levels by Q-PCR in A549 cells after HDAC inhibitor treatment; format: cell-based, Human; conditions: for mrna remaining at 0.1 µM: Homo sapiens, 100 nM, n = 4 (Example 3), read-out: % Fra1 mRNA remaining; for mrna remaining at 0.1 µM / % Fra1 mRNA remaining: A549 cells
Experimental: Human A549 non-small lung carcinoma cells (ATCC CCL-185, Manassas, Va.) are cultured in DMEM medium (Life Technologies, Gaithersburg, Md.) containing 4500 mg/l glucose, 10% fetal bovine serum (FBS, Life Technologies) plus 50 μg/ml Gentamycin (Life Technologies) in a humidified incubator with a 5% CO2 atmosphere at 37° C. Prior to Tpx A treatment, A549 cells are plated at a density of 2×10^5 cells/well in 6 well plates (Costar, Corning, N.Y.) and grown up for 24 h. Tpx A (1 mM stock solution in DMSO) is added to the cells at concentrations from 1 to 1000 nM and cells are incubated for either 24 or 48 hours h at 37° C.
as §1, §2, §3, §4
Human A549 non-small cell lung carcinoma cells (ATCC, Manassas, Va.) (ATCC #CCL-185) are cultured in DMEM medium (Life Technologies, Gaithersburg, Md.) containing 10% fetal bovine serum (FBS, Life Technologies) plus 50 μg/ml Gentamycin (Life Technologies) in a humidified incubator with a 5% CO2 atmosphere at 37° C. Prior to Compound B treatment, A549 cells are plated at a density of 5×10^4 cells/well in 24 well plates (Costar, Corning, N.Y.) and grown up for 24 h. Compound B (10 mM stock solution in DMSO) is diluted to a final concentration of 100 nM in tissue culture medium and added to the cells. As control an equivalent amount of DMSO is added to control cultures without Compound B. The cells are incubated at 37° C. for either 16, 24 or 48 hrs. All cell cultures are set up in duplicate. Total RNA from the compound—treated as well as untreated A549 cells is prepared using the RNeasy Mini kit (Qiagen, Hilden, Germany) according to the manufacturer's instructions. The RNA is recovered in 50 μl DEPC-treated H2O (RNase free) and the RNA concentration is determined by measuring the OD260 in a SpectraMax photometer (Molecular Devices, Sunnyvale, Calif.). The amount of RNA is adjusted to 5 ng/microliter.
DNA sequence of the Fra-1 primers and probes are as described above. Settings for reverse transcription of the target RNA and detection by Q-PCR are 50° C. for 2 min., 95° C. for 10 min. followed by 50 cycles of 95° C. for 15 sec and 60° C. for 1 min. […]

[6] = system: Fra-1 mRNA in H1299 cells; assay: Fra-1 mRNA expression by conventional microarray technology in H1299 cells; format: cell-based, Human; conditions: in the presence of TPX A, data not shown
[7] = system: Fra-1 mRNA in A549 cells; assay: Fra-1 mRNA expression by conventional microarray technology in A549 cells; format: cell-based, Human; conditions: in the presence of TPX A, data not shown

Compound: O=C(/C=C/c1ccc(CNCCc2c[nH]c3ccccc23)cc1)NO [Compound A, N-Hydroxy-3-[4-[[[2-(1H-indol-3-yl)-ethyl]-amino]methyl]phenyl]-2E-2-propenamide]
IC50 [1]: 0.063 ± 0.01 µM
mrna remaining at 0.1 µM ([2]; 100 nM drug, 6 hr (Example 2)): 7.14%
mrna remaining at 0.1 µM ([2]; 100 nM drug, 24 hr (Example 2)): 2.07%
mrna remaining at 0.1 µM ([3]; 6 hr): 32.6%
mrna remaining at 0.1 µM ([3]; 24 hr): 15.9%

IC50/µM on histone deacetylase (release of tritium-labelled acetyl groups from an acetylated Histone H4 peptide) [4]: 2.2 µM
Compound: trapoxin A (peptide)

Compound: O=C(/C=C/c1ccc(CN(CCO)CCc2c[nH]c3ccccc23)cc1)NO [Compound B, N-Hydroxy-3-[4-[[(2-hydroxyethyl)[2-(1H-indol-3-yl)-ethyl]-amino]methyl]phenyl]-2E-2-propenamide]
IC50 [1]: 0.032 ± 0.017 µM
mrna remaining at 0.1 µM ([5]; 16 hr): 15%
mrna remaining at 0.1 µM ([5]; 24 hr): 14.1%
mrna remaining at 0.1 µM ([5]; 48 hr): 52.8%

Compound: O=C(CCCCC[C@@H]1NC(=O)[C@H]2CCCCN2C(=O)[C@H](Cc2ccccc2)NC(=O)[C@H](Cc2ccccc2)NC1=O)C1CO1 (some centres unmarked) [TPX A, trapoxin A] (cyclo(FF[dPip][Aoe(9ξ)]))
repression of Fra-1 mRNA expression (microarray) [6]: > 200 fold
repression of Fra-1 mRNA expression (microarray) [7]: > 200 fold
IC50 [1]: 2.2 ± 0.96 µM
IC50 ([2]; H1299 cell line, Tpx A treatment, Q-PCR, read-out: IC50 for Fra-1 mRNA down regulation): 1 to 10 nM
% Fra1 mRNA remaining ([2]; 100 nM drug, 6 hr (Example 2)): 5.81%
% Fra1 mRNA remaining ([2]; 100 nM drug, 24 hr (Example 2)): 3.11%
% Fra1 mRNA remaining ([2]; 24 hours, 1 nM TPX A): 98%
% Fra1 mRNA remaining ([2]; 24 hours, 10 nM TPX A): 2%
% Fra1 mRNA remaining ([2]; 24 hours, 50 nM TPX A): 1%
% Fra1 mRNA remaining ([2]; 24 hours, 100 nM TPX A): 1%
% Fra1 mRNA remaining ([2]; 24 hours, 250 nM TPX A): 1%
% Fra1 mRNA remaining ([2]; 24 hours, 500 nM TPX A): 1%
% Fra1 mRNA remaining ([2]; 24 hours, 1000 nM TPX A): 1%
% Fra1 mRNA remaining ([2]; 48 hours, 1 nM TPX A): 94%
% Fra1 mRNA remaining ([2]; 48 hours, 10 nM TPX A): 7%
% Fra1 mRNA remaining ([2]; 48 hours, 50 nM TPX A): 1%
% Fra1 mRNA remaining ([2]; 48 hours, 100 nM TPX A): 1%
% Fra1 mRNA remaining ([2]; 48 hours, 250 nM TPX A): 1%
% Fra1 mRNA remaining ([2]; 48 hours, 500 nM TPX A): 1%
% Fra1 mRNA remaining ([2]; 48 hours, 1000 nM TPX A): 1%
IC50 ([5]; A549 cell line, Tpx A treatment, Q-PCR, read-out: IC50 for Fra-1 mRNA down regulation): 10 to 50 nM
% Fra1 mRNA remaining ([5]; 24 hours, 1 nM TPX A): 95%
% Fra1 mRNA remaining ([5]; 24 hours, 10 nM TPX A): 64%
% Fra1 mRNA remaining ([5]; 24 hours, 50 nM TPX A): 26%
% Fra1 mRNA remaining ([5]; 24 hours, 100 nM TPX A): 16%
% Fra1 mRNA remaining ([5]; 24 hours, 250 nM TPX A): 6%
% Fra1 mRNA remaining ([5]; 24 hours, 500 nM TPX A): 4%
% Fra1 mRNA remaining ([5]; 24 hours, 1000 nM TPX A): 3%
% Fra1 mRNA remaining ([5]; 48 hours, 1 nM TPX A): 93%
% Fra1 mRNA remaining ([5]; 48 hours, 10 nM TPX A): 84%
% Fra1 mRNA remaining ([5]; 48 hours, 50 nM TPX A): 38%
% Fra1 mRNA remaining ([5]; 48 hours, 100 nM TPX A): 32%
% Fra1 mRNA remaining ([5]; 48 hours, 250 nM TPX A): 14%
% Fra1 mRNA remaining ([5]; 48 hours, 500 nM TPX A): 7%
% Fra1 mRNA remaining ([5]; 48 hours, 1000 nM TPX A): 6%
% Fra1 mRNA remaining ([3]; 6 hr): 14.25%
% Fra1 mRNA remaining ([3]; 24 hr): 13.68%
